Results on 6 compounds are retold here after US20230265438A1, “NUCLEIC ACIDS FOR INHIBITING EXPRESSION OF CNNM4 IN A CELL” (ASOCIACIÓN CENTRO DE INVESTIGACIÓN COOPERATIVA EN …, priority 2020, published 2023).

Oligonucleotides are written 5' to 3', each unit as a sugar letter and its base; * is a phosphorothioate linkage, no mark a phosphodiester; rarer units and linkages stand in square brackets, end groups in braces. Plain capitals give the bases only. {ST23(ps)x3-ST43} = conjugate of three ST23 units joined by phosphorothioates, then ST43, saccharide (preferably GalNAc) moiety; {VP} = (E)-vinylphosphonate; m = 2'-O-methyl; f = 2'-fluoro

Series [1] concerns primary hepatocytes. The experiment in a line: Intracellular magnesium levels in primary hepatocytes (Example 1). The settings on record: NASH-induced primary hepatocytes; FIG. 7B. Type of series: cell-based, mouse. As for the experimental part: Primary hepatocytes grown in glass coverslips were loaded with 2 µM Mag-S-Tz or 1 µM Mag-S-Tz-AM diluted REF (Gruskos et al., 2016. J. Am. Chem. Soc. 138 (44), pp 14639-14649) in 0% FBS/1% PSG medium and incubated at 37° C. and 5% CO2 during 30′ or 1 h respectively. After removing the dye-containing medium, a 30′ incubation in 0% FBS/1% PSG was performed. Coverslips were then washed in a 20 mM Tris-HCl, 2.4 mM CaCl2, 10 mM glucose, pH 7.4 buffer and mounted on a perfusion chamber with thermostat on a Eclipse TE 300-based microspectrofluorometer (Nikon, USA) and visualized with a 40x oil-immersion fluorescence. Intracellular Mg2+ levels were determines using the method described by Grynkiewicz (Grynkiewiz et al., 1985. J Biol Chem. 260(6):3440-50). The 340/380 nm excited light ratio was determined with a Delta system (Photon Technologies International, Princeton) and converted into Mg^2+ concentration from the standard equation: […]

The subject of series [2] is primary hepatocytes. The series is described as follows: Lipid content in NASH-induced primary hepatocytes, BODIPY (Example 1). The format is cell-based, mouse. As for the experimental part: Primary hepatocytes from 3-month old wild-type (C57BL/6J) mice were isolated by perfusion with collagenase Type I (Worthington, USA). Briefly, animals were anesthetized with isoflurane (1.5% isoflurane in O2). […] Liver was perfused with buffer A (1x PBS, 5 mM EGTA, 37° C. and oxygenated) and the portal vein was cut. Next, liver was perfused with buffer B (1x PBS, 1 mM CaCl2 37° C. and oxygenated) to remove EGTA, and finally perfused with buffer C (1x PBS, 2 mM CaCl2, 0.65 BSA, collagenase type I, 37° C. and oxygenated). After buffer C perfusion, liver was separated from the resto of the body and placed into a petri dish with MEM (Gibco, USA). Gall bladder was carefully removed and, then, liver was mechanically disaggregated with forceps. […]
(§1) Primary hepatocytes cultured in high lipid content medium (OA) or methionine/choline deficient medium (MDMC) were fixed in 4% paraformaldehyde (10′, RT) in PBS and incubated with BODIPY 493/503 (Molecular Probes, Invitrogen) at 1 mg/ml (1h, RT). […] Quantification of lipid bodies was performed using Frida Software and represented as mean area per total number of cells.

The target in a further series is T1, ASGP-R complex (Homo sapiens, UniProt P07306+P07307).
T1 sequence (P07306 1-291): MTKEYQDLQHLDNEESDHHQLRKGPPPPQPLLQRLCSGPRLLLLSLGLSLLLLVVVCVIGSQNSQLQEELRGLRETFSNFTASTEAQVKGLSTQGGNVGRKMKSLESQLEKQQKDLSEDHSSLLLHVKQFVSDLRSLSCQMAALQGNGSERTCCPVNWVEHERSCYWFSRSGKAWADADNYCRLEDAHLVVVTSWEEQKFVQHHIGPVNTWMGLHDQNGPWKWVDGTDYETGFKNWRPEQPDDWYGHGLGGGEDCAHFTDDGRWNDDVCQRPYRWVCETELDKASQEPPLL
T1 sequence (P07307 1-311): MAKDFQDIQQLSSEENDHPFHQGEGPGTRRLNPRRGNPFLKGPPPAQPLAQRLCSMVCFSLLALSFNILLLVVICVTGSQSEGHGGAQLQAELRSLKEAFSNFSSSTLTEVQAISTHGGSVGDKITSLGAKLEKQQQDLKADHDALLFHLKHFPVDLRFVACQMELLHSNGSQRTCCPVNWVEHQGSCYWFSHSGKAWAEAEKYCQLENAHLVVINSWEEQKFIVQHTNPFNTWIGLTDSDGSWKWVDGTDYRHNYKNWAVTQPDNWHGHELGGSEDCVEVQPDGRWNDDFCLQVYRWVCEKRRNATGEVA
The conditions noted are these: cited from earlier work.

The test system of a further series is THLE2 cells. The experiment in a line: Lipid accumulation in NASH-induced human cells (THLE2) (Example 1). Type of series: cell-based. The conditions noted are these: FIG. 4A, 4B. As for the experimental part:
THLE-2 cells were purchased from ATCC (ATCC® CRL-2706TM). They were maintained on Bronchial Epithelial Growth Medium (BEGMTM, Lonza) supplemented with BEGM Bullet KitTM (Lonza) and 10%FBS. They were split with 0.05% trypsin-EDTA and collected in BEGM. After centrifugation at 123 g during 5 minutes, supernatant was discarded and pellet resuspended.
Cells were transfected with specific siRNAs (Hs n7o for human CNNM4 and Mm n7o for mouse CNNM4) at a final concentration of 100 nM using DharmaFECT 1 reagent (Dharmacon) following manufacturer’s protocol. DharmaFECT 1 and siRNA were diluted separately in 0% FBS/1% PSG MEM for 5′ at RT. Dilutions were then mixed and incubated 20′ at RT. siRNA transfection mixes were then added to cell suspension medium and replaced for fresh medium after 6 h.
Cells were transfected with a CNNM4 shRNA (SEQ ID NO: 454) by using lipofectamine® 3000 (Thermofisher) and following the protocol according manufacturer instructions. […]
as §1

The test system of a further series is murine hepatocytes. The experiment in a line: Acetaminophen (APAP) induced cell death in hepatocytes, Tunel and Trypan Blue (Example 19). The format is cell-based. The conditions noted are these: 1 nM and 10 nM for 6 hours, 10 mM acetaminophen for 6 hours. The protocol:
Freshly prepared murine hepatocytes were seeded in multi-well plates. Upon attachment, cells were incubated for 6 hours with 1 nM and 10 nM of EU404 or EU414 or left untreated. Thereafter, cells were cultured in serum-free culture medium (MEM) for 13 to 14 hours. Subsequently, they remained untreated (Ut) or 10 mM acetaminophen was added to the medium (APAP). 6 hours later, cells were stained by Tunel assay or Trypan Blue staining to determine the proportion of cells that were necrotic (Tunel positive) or had undergone cell death (Trypan Blue positive).

The test system of a further series is CNNM4. The experiment in a line: CNNM4 expression in hepatocytes of the APAP experiment (Example 19). Type of series: cell-based. The settings on record: murine hepatocytes, 1 nM and 10 nM for 6 hours; FIG. 25A.
Another series has as its system 0.1% MCDD NASH model. The series is described as follows: Rodent 0.1% MCDD NASH model: steatosis, ROS, macrophages, fibrosis, serum Mg2+ (Example 18). Type of series: in vivo, mouse. The settings on record: 0.1% MCDD mice. The protocol:
Three-month old male C57BL/6 mice were maintained on a diet deficient in choline with 0.1% methionine (0.1%MCDD) (A02082006i, Research Diets, Inc., New Jersey, USA) for six weeks or fed a standard chow (SC). After three weeks of 0.1% MCDD, mice were treated with […] CNNM4 siRNA conjugate (EU414) per body weight. Control groups fed with 0.1% MCD received 1 mg/kg non-targeting siRNA conjugate (EU400). Control mice fed with normal chow (SC) received the vehicle PBS at the same time point (three weeks). Liver samples were collected from all mice at the end of the study and cryopreserved by embedding in […] cryocompound (OCT) or fixed with formalin and embedded in paraffin for preparation of sections. Lipid bodies and reactive oxygen species (ROS) were detected in cryosections by staining with Sudan red and Dihydroxyetidium (DHE), respectively. Liver fibrosis was assessed in paraffine sections by staining of the smooth muscle cell marker alpha smooth muscle actin (αSMA) by immunohistochemistry, as well as by detection of collagen fibers by Sirius red staining. Macrophages were detected by immunohistochemistry, by F4/80 staining of paraffin-embedded liver sections. Blood samples were collected from all animals at the six-week time point for serum preparation. Serum Mg^2+ levels were then determined using the QuantiCrom™Magnesium Assay Kit (BioAssay Systems, USA).
These figures show quantifications of stained area percentages from each individual staining calculated using FIJI (https://imagej.net/Fiji.) in box and whisker plots with 5-95% percentile. n=5-7. (a.u. = arbitrary units).

For a further series, the system named is CNNM4 mRNA. The series is described as follows: CNNM4 mRNA in liver of wild-type mice after single subcutaneous dose (Examples 12-14). The conditions noted are these: wild-type C57BL/6 mice. Type of series: in vivo, mouse. The protocol: (§2) Five- to seven-week old male C57BL/6 mice were treated with a single dose of 1 or 5 mg siRNA conjugate per kg body weight by subcutaneous injection. Control groups received a subcutaneous injection with the vehicle PBS. Two weeks after the treatment, liver samples were collected from all mice and snap frozen. RNA was extracted from liver samples and CNNM4 and Actin mRNA levels were determined by Taqman qRT-PCR. Values obtained for CNNM4 mRNA were normalized to values generated for the housekeeping gene Actin and related to mean of untreated sample (ut) set at 1-fold target gene expression. Each bar represents mean value from 6 animals +/-SD.
Five- to seven-week old male C57BL/6 mice were treated with a single dose of 0.3 or 1 mg siRNA conjugate per kg body weight by subcutaneous injection. Control groups received a subcutaneous injection with the vehicle PBS. Two weeks after the treatment, liver samples were collected from all mice and snap frozen. RNA was extracted from liver samples and CNNM4 and Actin mRNA levels were determined by Taqman qRT-PCR. Values obtained for CNNM4 mRNA were normalized to values generated for the housekeeping gene Actin and related to mean of untreated sample (ut) set at 1-fold target gene expression. Each bar represents mean value from 6 animals +/-SD.
as §2, with “1” for “1 or 5”, “Five” for “Two”, “PBS treated cohort (PBS)” for “untreated sample (ut)”

Regarding `Nc1c[nH]c(=O)c2cc(-c3ccccc3)sc12` [7-amino-2-phenyl-5H-thieno[3,2-c]pyridin-4-one, reference compound], the Intracellular magnesium levels entry with primary hepatocytes [1] is “accumulate magnesium”. The Lipid content entry in the series with primary hepatocytes [2] (NASH-induced primary hepatocytes, FIG. 3A, 5A, 7A) is recorded as “decreases its lipid content”.
Turning to `CC(=O)N[C@H]1C(O)O[C@H](CO)[C@H](O)[C@@H]1O` (stereo partly drawn) [GalNAc, 2-(Acetylamino)-2-deoxy-D-galactopyranose], the “Affinity for the ASGP-R complex relative to D-Gal” value at ASGP-R complex was 50 fold.
On to “CNNM4 shRNA: CNNM4 shRNA (SEQ ID NO: 454) (UCUCUGCCUUCAAGGAUGCGGACAAUGAG; listed as RNA, chemistry not fully specified)”, for which the Lipid content result in the series on THLE2 cells is listed as “returns to healthy levels”.
In the case of “EU414: CNNM4 siRNA conjugate, duplex EU414A/EU414B; consists of SEQ ID NO: 237 and SEQ ID NO: 238 (chain 1 {VP}-mUfGmAfCmAfAmAfAmGfAmCfAmCfAmAfGmA*fG*mU; chain 2 {ST23(ps)x3-ST43}*mAmCmUmCmUmUfGfUfGmUmCmUmUmUmUmGmU*mC*mA)”, in the series with murine hepatocytes, the “Tripan Blue positive cells (cell death marker)” value is “reduction” and the “Tunel positive cells (necrosis marker)” value is on record as “reduction of Tunel positive cells”. Moreover, in the series with CNNM4, the CNNM4 expression result was “reduction of CNNM4 expression”. Moreover, the “Liver steatosis (lipid bodies, Sudan red)” value in the series with 0.1% MCDD NASH model (1 or 5 mg/kg at week 3, liver at week 6, FIG. 24A) is listed as “reduction of liver steatosis”. Besides, the “Reactive oxygen species (DHE staining)” value in the series with 0.1% MCDD NASH model (1 or 5 mg/kg at week 3, liver at week 6, FIG. 24B) is “reduction of reactive oxygen species”. Moreover, the “Macrophage infiltration (F4/80 positive cells) in the liver” value in the series on 0.1% MCDD NASH model (1 or 5 mg/kg at week 3, liver at week 6, FIG. 24C) is “reduction of macrophage infiltration”. The “Liver fibrosis (αSMA, Sirius red)” value in the series with 0.1% MCDD NASH model (1 or 5 mg/kg at week 3, liver at week 6, FIGS. 24D and 24E) is recorded as “reduction in liver fibrosis”. The “Serum Mg2+ levels” value in the series with 0.1% MCDD NASH model (1 or 5 mg/kg at week 3, serum at six-week time point, FIG. 24F) is “reduction of serum Mg^2+ levels”. Besides, the “CNNM4 mRNA levels in the liver” value in the series with CNNM4 mRNA (two weeks after single dose of 1 or 5 mg/kg s.c., FIG. 18) is reported as “reduction of CNNM4 mRNA levels”.
As to “EU420: CNNM4 siRNA conjugate, duplex EU414A/EU420B; consists of SEQ ID NO: 237 and SEQ ID NO: 460 (chain 1 UGACAAAAGACACAAGAGU; chain 2 ACUCUUGUGUCUUUUGUCA; conjugate, chemistry not fully specified)”, the “CNNM4 mRNA levels in the liver” value in the series with CNNM4 mRNA (five weeks after single dose of 1 mg/kg s.c., FIG. 20) is on record as “reduction of CNNM4 mRNA levels”; in the series with CNNM4 mRNA (two weeks after single dose of 0.3 or 1 mg/kg s.c., FIG. 19) it was “reduction of CNNM4 mRNA levels”.
For the compound Magnesium, the Lipid content result in the series with primary hepatocytes [2] (primary hepatocytes with CNNM4 overexpression, FIG. 5B) is on record as “does not reduce lipid content”.
